Like-named read-outs stand apart in the source and are kept apart here.
Assays:
[1] = Dynamic vapor sorption (DVS), gravimetric moisture sorption; format: physicochemical; settings: at 80% Relative Humidity, 25° C.
Description: Dynamic Vapor Sorption (DVS) were collected conducted using an SMS DVS Advantage 1 system. For each sample analyzed approximately 10 mg of material was transferred into the DVS instrument and recorded the weight change with respect to the atmospheric humidity at 25° C. using the following parameters: Equilibrium dm/dt: 0.01%/min, (for min: 10 min and max: 180 min); drying setting were 0% RH for 120 min; RH (%) measurement step at 10% and RH (%) measurement step scope of 0-90-0%.

[2] = format: physicochemical; settings: 1 w
Description: For each salt, approximately 5 mg compound was added into an 8 mL glass vial with a multi-hole aluminum foil cap, and kept at 60° C., 40° C./75% RH for 1 week. […] Appearance by visual observation were recorded followed by purity assessment and XPRD data collection on the residual solids.

[3] = format: physicochemical
[4] = format: physicochemical; settings: after solubility test

COC(=O)c1ccc2c(c1)NC(=O)/C2=C(\Nc1ccc(N(C)C(=O)CN2CCN(C)CC2)cc1)c1ccccc1.Cl [Compound 1 Hydrochloride (Form B)]
gravimetric moisture sorption [1]: about 2.9 % (by weight)

COC[C@@]1(O)CC[C@@]2(C)[C@@H](CC[C@@H]3[C@@H]2CC[C@]2(C)[C@@H](C(=O)Cn4ccnc4)CC[C@@H]32)C1.O=C(O)CC(O)(CC(=O)O)C(=O)O [Compound 1 Citrate (Form A)]
Final purity ([2]; 40° C./75% RH): 99.4
XRPD pattern ([2]; 40° C./75% RH): Form A
Final purity ([2]; 60° C.): 99.5
XRPD pattern ([2]; 60° C.): Form A
Final purity ([3]; 1.2 million lux-hrs): 99.5
XRPD pattern ([3]; 1.2 million lux-hrs): Form A
Final purity ([3]; Dark control): 99.5
XRPD pattern ([3]; Dark control): Form A
gravimetric moisture sorption [1]: about 3.6 % (by weight)

COCC1(O)CCC2(C)C(CCC3C2CCC2(C)C(C(=O)Cn4ccnc4)CCC32)C1.O=C(O)CC(O)C(=O)O [Compound 1 L-Malate (Form B)]
gravimetric moisture sorption [1]: about 3.5 % (by weight)

COCC1(O)CCC2(C)C(CCC3C2CCC2(C)C(C(=O)Cn4ccnc4)CCC32)C1.O=C(O)C(O)C(O)C(=O)O (stereo not drawn) [Compound 1 L(+)-Tartrate (Form B)]
gravimetric moisture sorption [1]: about 1.7 % (by weight)

COCC1(O)CCC2(C)C(CCC3C2CCC2(C)C(C(=O)Cn4ccnc4)CCC32)C1.O=C(O)C(Cl)Cl (centres unmarked) [Compound 1 Dichloroacetate (Form A)]
gravimetric moisture sorption [1]: about 1.8 % (by weight)

COC[C@@]1(O)CC[C@@]2(C)[C@@H](CC[C@@H]3[C@@H]2CC[C@]2(C)[C@@H](C(=O)Cn4ccnc4)CC[C@@H]32)C1.O=S(=O)(O)c1ccccc1 [Compound 1 Besylate (Form A)]
gravimetric moisture sorption [1]: about 4.0 % (by weight)

COCC1(O)CCC2(C)C(CCC3C2CCC2(C)C(C(=O)Cn4ccnc4)CCC32)C1.Nc1ccc(C(=O)O)c(O)c1 (centres unmarked) [p-Aminosalicylate (Form A)]
Final pH (FaSSIF) ([4]; FaSSIF (original pH = 6.51)): 5.12
Final pH (FeSSIF) ([4]; FeSSIF (original pH = 4.99)): 5.06
Final pH (SGF) ([4]; SGF (original pH = 1.82)): 3.73

COCC1(O)CCC2(C)C(CCC3C2CCC2(C)C(C(=O)Cn4ccnc4)CCC32)C1.O=P(O)(O)O (centres unmarked) [Compound 1 Phosphate (Form A)]
gravimetric moisture sorption [1]: about 2.1 % (by weight)

COC[C@@]1(O)CC[C@@]2(C)[C@@H](CC[C@@H]3[C@@H]2CC[C@]2(C)[C@@H](C(=O)Cn4ccnc4)CC[C@@H]32)C1.O=C(O)CC(O)(CC(=O)O)C(=O)O [Compound 1 Citrate (Form B)]
Final purity ([2]; 40° C./75% RH): 98.3
XRPD pattern ([2]; 40° C./75% RH): Form B
Final purity ([2]; 60° C.): 97.7
XRPD pattern ([2]; 60° C.): Form B
Final purity ([3]; 1.2 million lux-hrs): 99.3
XRPD pattern ([3]; 1.2 million lux-hrs): Form B
Final purity ([3]; Dark control): 99.1
XRPD pattern ([3]; Dark control): Form B
gravimetric moisture sorption [1]: about 2.8 % (by weight)

COC[C@@]1(O)CC[C@@]2(C)[C@@H](CC[C@@H]3[C@@H]2CC[C@]2(C)[C@@H](C(=O)Cn4ccnc4)CC[C@@H]32)C1.O=C(O)C(O)C(O)C(=O)O [Compound 1 L(+)-Tartrate (Form A)]
gravimetric moisture sorption [1]: about 1.6 % (by weight)

COC[C@@]1(O)CC[C@@]2(C)[C@@H](CC[C@@H]3[C@@H]2CC[C@]2(C)[C@@H](C(=O)Cn4ccnc4)CC[C@@H]32)C1.O=S(=O)(O)CCO [Compound 1 Isethionate (Form A)]
gravimetric moisture sorption [1]: about 4.9 % (by weight)

COCC1(O)CCC2(C)C(CCC3C2CCC2(C)C(C(=O)Cn4ccnc4)CCC32)C1.Nc1ccc(C(=O)O)c(O)c1 (centres unmarked) [Compound 1 P-Aminosalicylate (Form A)]
gravimetric moisture sorption [1]: about 4.0 % (by weight)

COCC1(O)CCC2(C)C(CCC3C2CCC2(C)C(C(=O)Cn4ccnc4)CCC32)C1.Cc1ccc(S(=O)(=O)O)cc1 (centres unmarked) [Compound 1 Tosylate (Form A)]
gravimetric moisture sorption [1]: about 1.5 % (by weight)

COC[C@@]1(O)CC[C@@]2(C)[C@@H](CC[C@@H]3[C@@H]2CC[C@]2(C)[C@@H](C(=O)Cn4ccnc4)CC[C@@H]32)C1.O=S(=O)(O)NC1CCCCC1 [Compound 1 Cyclamate (Form A)]
gravimetric moisture sorption [1]: about 7.3 % (by weight)

COCC1(O)CCC2(C)C(CCC3C2CCC2(C)C(C(=O)Cn4ccnc4)CCC32)C1.O=CC(O)C(O)C(O)C(O)C(=O)O [Compound 1 D-Glucuronate (Form A)]
gravimetric moisture sorption [1]: about 1.4 % (by weight)

COCC1(O)CCC2(C)C(CCC3C2CCC2(C)C(C(=O)Cn4ccnc4)CCC32)C1.Cl (centres unmarked) [Compound 1 Hydrochloride (Form A)]
gravimetric moisture sorption [1]: about 3.6 % (by weight)

CCS(=O)(=O)O.COCC1(O)CCC2(C)C(CCC3C2CCC2(C)C(C(=O)Cn4ccnc4)CCC32)C1 (centres unmarked) [Compound 1 Ethanesulfonate (Form A)]
gravimetric moisture sorption [1]: about 1.4 % (by weight)

COCC1(O)CCC2(C)C(CCC3C2CCC2(C)C(C(=O)Cn4ccnc4)CCC32)C1.O=C1OC(C(O)CO)C(O)=C1O (centres unmarked) [Compound 1 Ascorbate (Form A)]
gravimetric moisture sorption [1]: about 5.7 % (by weight)

COC(=O)c1ccc2c(c1)NC(=O)/C2=C(\Nc1ccc(N(C)C(=O)CN2CCN(C)CC2)cc1)c1ccccc1.CS(=O)(=O)O [Compound 1 Mesylate (Form A)]
gravimetric moisture sorption [1]: about 3.4 % (by weight)

COCC1(O)CCC2(C)C(CCC3C2CCC2(C)C(C(=O)Cn4ccnc4)CCC32)C1.O=C(O)c1ccc2ccccc2c1O (centres unmarked)
gravimetric moisture sorption [1]: about 4.6 % (by weight)

COC(=O)c1ccc2c(c1)NC(=O)/C2=C(\Nc1ccc(N(C)C(=O)CN2CCN(C)CC2)cc1)c1ccccc1.Cl [Compound 1 Hydrochloride (Form C)]
gravimetric moisture sorption [1]: about 0.7 % (by weight)

COCC1(O)CCC2(C)C(CCC3C2CCC2(C)C(C(=O)Cn4ccnc4)CCC32)C1.O=C(O)CC(O)C(=O)O [Compound 1 L-Malate (Form A)]
gravimetric moisture sorption [1]: about 2.0 % (by weight)

COC[C@@]1(O)CC[C@@]2(C)[C@@H](CC[C@@H]3[C@@H]2CC[C@]2(C)[C@@H](C(=O)Cn4ccnc4)CC[C@@H]32)C1.O=S(=O)(O)c1ccc2ccccc2c1 [Compound 1 Napsylate (Form A)]
gravimetric moisture sorption [1]: about 3.9 % (by weight)

COC[C@@]1(O)CC[C@@]2(C)[C@@H](CC[C@@H]3[C@@H]2CC[C@]2(C)[C@@H](C(=O)Cn4ccnc4)CC[C@@H]32)C1.O=S(=O)(O)O [Compound 1 Sulfate (Form A)]
gravimetric moisture sorption [1]: about 6.2 % (by weight)

COCC1(O)CCC2(C)C(CCC3C2CCC2(C)C(C(=O)Cn4ccnc4)CCC32)C1.O=C(O)c1cc(O)ccc1O (centres unmarked) [Compound 1 Gentisate (Form A)]
gravimetric moisture sorption [1]: about 3.1 % (by weight)

COC[C@@]1(O)CC[C@@]2(C)[C@@H](CC[C@@H]3[C@@H]2CC[C@]2(C)[C@@H](C(=O)Cn4ccnc4)CC[C@@H]32)C1.O=C(O)C[C@H](O)C(=O)O [L-Malate (Form B)]
Final purity ([2]; 40° C./75% RH): 98.5
Final purity ([2]; 60° C.): 97.8
XRPD patterns ([2]; 60° C.): Form B
Final purity ([3]; 1.2 million lux-hrs): 97.6
XRPD patterns ([3]; 1.2 million lux-hrs): Form B
Final purity ([3]; Dark control): 97.5
XRPD patterns ([3]; Dark control): Form B

From patent publication US10927141B2 (priority 2018, dated 2021)
